PubChem BioAssay AID248 (DTP/NCI, 2004)
Values joined by “and” are separate entries in the source; they are usually repeats but may differ in a detail not shown here. Identical values can stand only once. Inconclusive results and toxic doses are left out.

System: L1210 leukemia ip in BDF1 mice, survival T/C
Test: NCI In Vivo Anticancer Drug Screen. Data for tumor model L1210 Leukemia (intraperitoneal) in B6D2F1 (BDF1) mice
Details: endpoint: mean survival time, higher = longer survival
Method in brief: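 Tumor cells were implanted, animals were treated, and survival was followed. The result divides the treated measurement by the vehicle-control measurement.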

[1] = dose: 25.0 mg/kg/injection, schedule: Q01DX009 (ip), vehicle: Klucel (hydroxypropylcellulose) (HPC)
[2] = dose: 50.0 mg/kg/injection, schedule: Q01DX009 (ip), vehicle: Klucel (hydroxypropylcellulose) (HPC)
[3] = dose: 100.0 mg/kg/injection, schedule: Q01DX009 (ip), vehicle: Klucel (hydroxypropylcellulose) (HPC)
[4] = dose: 200.0 mg/kg/injection, schedule: Q01DX009 (ip), vehicle: Klucel (hydroxypropylcellulose) (HPC)
[5] = dose: 100.0 mg/kg/injection, schedule: Q04DX003 (ip), vehicle: Klucel (hydroxypropylcellulose) (HPC)
[6] = dose: 200.0 mg/kg/injection, schedule: Q04DX003 (ip), vehicle: Klucel (hydroxypropylcellulose) (HPC)
[7] = dose: 400.0 mg/kg/injection, schedule: Q04DX003 (ip), vehicle: Klucel (hydroxypropylcellulose) (HPC)
[8] = dose: 100.0 mg/kg/injection, schedule: Q04DX002 (ip), vehicle: Klucel (hydroxypropylcellulose) (HPC)
[9] = dose: 200.0 mg/kg/injection, schedule: Q04DX002 (ip), vehicle: Klucel (hydroxypropylcellulose) (HPC)
[10] = dose: 400.0 mg/kg/injection, schedule: Q01DX001 (ip), vehicle: saline

CCCCC1CN=C(c2ccc(NC(=O)c3ccc(C(=O)Nc4ccc(C5=NCC(CCCC)CN5)cc4)c(Cl)c3)cc2)NC1 (stereo not given)
T/C (dose: 5.0 mg/kg/injection, schedule: Q01DX015 (ip), vehicle: methylcellulose (MC)): 109 % of control | T/C (dose: 22.5 mg/kg/injection, schedule: Q01DX015 (ip), vehicle: methylcellulose (MC)): 123 % of control | T/C (dose: 45.0 mg/kg/injection, schedule: Q01DX015 (ip), vehicle: methylcellulose (MC)): 111 % of control | T/C (dose: 62.0 mg/kg/injection, schedule: Q01DX015 (ip), vehicle: methylcellulose (MC)): 109 % of control

O=C1OCC(C(=O)c2ccccc2)C1=Nc1ccccc1O (stereo not given)
T/C (dose: 50.0 mg/kg/injection, schedule: Q01DX001 (ip), vehicle: carboxymethylcellulose (CMC)): 94 % of control | T/C (dose: 100.0 mg/kg/injection, schedule: Q01DX001 (ip), vehicle: carboxymethylcellulose (CMC)): 100 % of control | T/C (dose: 200.0 mg/kg/injection, schedule: Q01DX001 (ip), vehicle: carboxymethylcellulose (CMC)): 100 % of control | T/C (dose: 400.0 mg/kg/injection, schedule: Q01DX001 (ip), vehicle: carboxymethylcellulose (CMC)): 92 % of control

CC(C)NC(=S)Nc1ccccc1
T/C (dose: 75.0 mg/kg/injection, schedule: Q01DX001 (ip), vehicle: other): 102 % of control

COC(=O)c1ccccc1NC(=O)Nc1ccc(F)c([N+](=O)[O-])c1
T/C [1]: 109 % of control | T/C [2]: 103 % of control | T/C [3]: 93 % of control and 89 % of control | T/C [4]: 95 % of control | T/C (dose: 400.0 mg/kg/injection, schedule: Q01DX009 (ip), vehicle: Klucel (hydroxypropylcellulose) (HPC)): 93 % of control

N#Cc1cc(C#N)c(Cl)nc1N
T/C [3]: 94 % of control | T/C [5]: 97 % of control | T/C [4]: 95 % of control | T/C [6]: 95 % of control | T/C [7]: 106 % of control

O=C(Nc1ccccc1C(=O)OCc1ccc([N+](=O)[O-])cc1)OCc1ccccc1
T/C (dose: 75.0 mg/kg/injection, schedule: Q04DX003 (ip), vehicle: saline): 98 % of control | T/C (dose: 150.0 mg/kg/injection, schedule: Q04DX003 (ip), vehicle: saline): 98 % of control | T/C (dose: 300.0 mg/kg/injection, schedule: Q04DX003 (ip), vehicle: saline): 104 % of control

O=C(CCCCl)N1CCCCC1
T/C (dose: 100.0 mg/kg/injection, schedule: Q04DX002 (ip), vehicle: saline): 94 % of control | T/C (dose: 200.0 mg/kg/injection, schedule: Q04DX002 (ip), vehicle: saline): 98 % of control | T/C (dose: 400.0 mg/kg/injection, schedule: Q04DX002 (ip), vehicle: saline): 96 % of control

Cc1[nH]c2ccccc2c(=O)c1/C=N/NC(N)=S
T/C [8]: 109 % of control | T/C [9]: 91 % of control | T/C (dose: 400.0 mg/kg/injection, schedule: Q04DX002 (ip), vehicle: Klucel (hydroxypropylcellulose) (HPC)): 98 % of control

CCCCCCCCCCOC(=O)COc1ccc(C(C)(C)C)cc1
T/C (dose: 100.0 mg/kg/injection, schedule: Q01DX009 (ip), vehicle: saline): 92 % of control | T/C (dose: 200.0 mg/kg/injection, schedule: Q01DX009 (ip), vehicle: saline): 98 % of control

Cc1ccc(S(=O)(=O)NC(=O)N(Cc2ccccc2)C(C)(C)C)cc1
T/C [1]: 107 % of control | T/C [2]: 100 % of control

O=C(O)C/C=C/c1ccccc1Br
T/C (dose: 100.0 mg/kg/injection, schedule: Q01DX001 (ip), vehicle: Klucel (hydroxypropylcellulose) (HPC)): 91 % of control | T/C (dose: 200.0 mg/kg/injection, schedule: Q01DX001 (ip), vehicle: Klucel (hydroxypropylcellulose) (HPC)): 101 % of control | T/C (dose: 400.0 mg/kg/injection, schedule: Q01DX001 (ip), vehicle: Klucel (hydroxypropylcellulose) (HPC)): 95 % of control

Cc1nnc(NS(=O)(=O)c2ccc(N=Nc3c(N)[nH]c(=O)[nH]c3=O)cc2)s1
T/C (dose: 100.0 mg/kg/injection, schedule: Q01DX001 (ip), vehicle: saline): 96 % of control | T/C (dose: 200.0 mg/kg/injection, schedule: Q01DX001 (ip), vehicle: saline): 111 % of control | T/C [10]: 98 % of control

O=S(=O)(Nc1ccccn1)c1ccc(N(CCCl)CCCl)cc1
T/C (dose: 100.0 mg/kg/injection, schedule: Q01DX001 (ip), vehicle: other): 95 % of control | T/C (dose: 200.0 mg/kg/injection, schedule: Q01DX001 (ip), vehicle: other): 103 % of control | T/C (dose: 400.0 mg/kg/injection, schedule: Q01DX001 (ip), vehicle: other): 106 % of control

N#CC1(Cc2ccc(Br)cc2)c2cc(OC(=O)c3ccccc3)ccc2C=CN1C(=O)c1ccccc1 (stereo not given)
T/C [5]: 96 % of control | T/C [6]: 99 % of control | T/C [7]: 99 % of control

CCOc1nc(N)c(C(N)=O)cc1C#N
T/C (dose: 100.0 mg/kg/injection, schedule: Q04DX003 (ip), vehicle: saline sonified): 98 % of control | T/C (dose: 200.0 mg/kg/injection, schedule: Q04DX003 (ip), vehicle: saline sonified): 105 % of control

CCN(CC)c1ccc(/C=N/N=C(N)N)cc1
T/C (dose: 3.8 mg/kg/injection, schedule: Q01DX Z (ip), vehicle: other): 109 % of control | T/C (dose: 7.5 mg/kg/injection, schedule: Q01DX Z (ip), vehicle: other): 88 % of control | T/C (dose: 15.0 mg/kg/injection, schedule: Q01DX Z (ip), vehicle: other): 97 % of control

CCCC(=O)OCC1OC(n2cnc3c(=S)nc[nH]c32)C(OC(=O)CCC)C1OC(=O)CCC (stereo not given)
T/C (dose: 3.12 mg/kg/injection, schedule: Q04DX003 (ip), vehicle: saline): 97 % of control | T/C (dose: 6.25 mg/kg/injection, schedule: Q01DX009 (ip), vehicle: saline): 112 % of control | T/C (dose: 6.25 mg/kg/injection, schedule: Q01DX Z (ip), vehicle: other): 117 % of control | T/C (dose: 6.25 mg/kg/injection, schedule: Q04DX003 (ip), vehicle: saline): 113 % of control | T/C (dose: 8.36 mg/kg/injection, schedule: Q01DX009 (ip), vehicle: saline with Tween-80): 122 % of control | T/C (dose: 8.36 mg/kg/injection, schedule: Q04DX003 (ip), vehicle: saline with Tween-80): 107 % of control | T/C (dose: 12.5 mg/kg/injection, schedule: Q01DX009 (ip), vehicle: saline): 122 % of control | T/C (dose: 12.5 mg/kg/injection, schedule: Q04DX003 (ip), vehicle: saline with Tween-80): 114 % of control | T/C (dose: 12.5 mg/kg/injection, schedule: Q04DX003 (ip), vehicle: saline): 118 % of control | T/C (dose: 25.0 mg/kg/injection, schedule: Q01DX Z (ip), vehicle: other): 153 % of control | T/C (dose: 25.0 mg/kg/injection, schedule: Q04DX003 (ip), vehicle: saline): 121 % of control | T/C (dose: 26.0 mg/kg/injection, schedule: Q01DX001 (ip), vehicle: saline): 121 % of control | T/C (dose: 40.0 mg/kg/injection, schedule: Q01DX001 (ip), vehicle: saline): 121 % of control | T/C (dose: 50.0 mg/kg/injection, schedule: Q01DX009 (ip), vehicle: saline): 164 % of control | T/C (dose: 50.0 mg/kg/injection, schedule: Q01DX Z (ip), vehicle: other): 89 % of control | T/C (dose: 200.0 mg/kg/injection, schedule: Q04DX003 (ip), vehicle: saline): 123 % of control | T/C (dose: 300.0 mg/kg/injection, schedule: Q01DX001 (ip), vehicle: saline): 151 % of control | T/C [10]: 121 % of control | T/C (dose: 400.0 mg/kg/injection, schedule: Q01DX009 (ip), vehicle: saline): 100 % of control | T/C (dose: 400.0 mg/kg/injection, schedule: Q04DX003 (ip), vehicle: saline): 105 % of control

CN(C(=O)c1n[nH]c2ccccc12)c1ccccc1
T/C (dose: 50.0 mg/kg/injection, schedule: Q04DX002 (ip), vehicle: Klucel (hydroxypropylcellulose) (HPC)): 101 % of control | T/C [8]: 108 % of control | T/C [9]: 101 % of control

NC(=O)C(N)Cc1ccc(OCc2ccccc2)c(OCc2ccccc2)c1 (stereo not given)
T/C (dose: 100.0 mg/kg/injection, schedule: Q01DX001 (ip), vehicle: saline with Tween-80): 92 % of control | T/C (dose: 100.0 mg/kg/injection, schedule: Q01DX009 (ip), vehicle: saline with Tween-80): 101 % of control | T/C (dose: 200.0 mg/kg/injection, schedule: Q01DX001 (ip), vehicle: saline with Tween-80): 94 % of control | T/C (dose: 200.0 mg/kg/injection, schedule: Q01DX009 (ip), vehicle: saline with Tween-80): 95 % of control | T/C (dose: 400.0 mg/kg/injection, schedule: Q01DX001 (ip), vehicle: saline with Tween-80): 86 % of control

CCC(Cl)COP(=O)(OCC(Cl)CC)C(c1ccc(Cl)c(Cl)c1)P(=O)(OCC(Cl)CC)OCC(Cl)CC (stereo not given)
T/C [5]: 101 % of control | T/C [6]: 98 % of control | T/C [7]: 96 % of control
